In test [1] the target is T1, FGFR1 (Mus musculus, UniProt P16092). Kind of test: Western blot of FGFR1 signaling pathway in melanoma B16-F10. Particulars: bFGF stimulation. It counts as cell-based. Also on record: endogenous in cells. The method, then:
(§1) Cervical cancer cells Hela229, melanoma B16-F10, lung cancer cells NCI-H460, gastric cancer cells SGC-7901 and MGC-803 were inoculated into 6-well plates, respectively. After growing adherently overnight, the cells were pretreated with P48 for 10 min or with AZD4547/SSR for 2 h, and incubated with bFGF for 15 min or with KGF for 20 min.
(Immunoblotting shows a protein as a band on a membrane.)

Test [2] deals with T1, FGFR1. Kind of test: Western blot of bFGF-induced FGFR1 activation in Balb/c 3T3 fibroblasts. Particulars: P48 pretreatment 10 min, bFGF 15 min. The arrangement: endogenous in cells; host or cells: MEF-WT; Balb/c 3T3. It counts as cell-based. The procedure: (§2) Human embryonic kidney cells HEK-293, fibroblasts MEF-WT and Balb/c 3T3 were inoculated into 6-well plates, respectively. After growing adherently overnight, the cells were pretreated with P48 for 10 min or with AZD4547/PD173074/SSR for 2 h, and incubated with bFGF for 15 min. […] The experimental procedure was as follows: MEF-WT and MEFKO (FGFR1-FGFR2-FRS2a) cells (1×10^6 cells/ml) were inoculated in a 35 mm petri dish. After being adhered to the wall of petri dish overnight, the cells were washed with PBS; FITC-conjugated P48 (1, 10, 100 and 1000 nM) was added, and the cells were incubated in an incubator for 30 min. The cells were immobilized with 1% paraformaldehyde in the dark and washed with PBS. An expression level of the FITC was measured at a fluorescence channel 1 (FL-1) (530 nm), with an excitation wavelength of 488 nm. Data analysis was conducted using CellQuest software (Becton Dickinson).

Test [3] deals with T1, FGFR1. In words: Western blot of bFGF-induced FGFR1 activation in MEF-WT fibroblasts. The format is cell-based. Particulars: P48 pretreatment 10 min, bFGF 15 min. Also on record: endogenous in cells; host or cells: MEF-WT; Balb/c 3T3. The method, then:
as §2

Test [4] has as its system B16-F10 cells. Kind of test: MTT viability, B16-F10 cells. The format is cell-based. The following applies: 48 h with bFGF. The method, then:
(§3) In vitro anti-tumor activity of a short peptide compound P48 Hela229 (1500 cells/100 μl), B16-F10 (1000 cells/100 μl), NCI-H460 (4000 cells/100 μl) and SGC7901 (4000 cells/100 μl) cells were inoculated in 96-well plates. After incubated overnight adherently, the original medium was replaced with a Dulbecco's modified eagle medium (DMEM) containing 0.1% fetal bovine serum (FBS) or a Roswell Park Memorial Institute 1640 (RPMI-1640) medium containing 0.1% FBS, and culture was continued for 24 h. A mixture of P48 and bFGF, or bFGF alone were added into corresponding wells, and incubated for 48 h; an MTT solution (5 mg/mL) prepared by PBS was added to the cells in each well at 37° C., and treated for 4 h. The MTT was removed by aspiration, 150 μL of DMSO was added to each well, shaking was conducted for 10 min, and an optical density (OD) value was quantified with a microplate reader (SpectraMax M2/M2e, Molecular Devices, Sunnyvale, USA) at a wavelength of 490 nm. The percentage of drug growth inhibition rate was calculated by comparing with the bFGF group. […] The experimental procedure was as follows: 10% FBS-containing medium (500 μl) was added to a lower surface of a transwell insertion chamber, the cells together with the drug were inoculated into an upper chamber, and cultured with a serum-free medium (200 μl). […]

Test [5] concerns gastric cancer cells SGC-7901. In words: Flow cytometry cell cycle analysis of SGC-7901 cells. The format is cell-based. The following applies: P48 with bFGF, 24 h. (In general: In flow cytometry, cells or beads pass a laser one at a time.)
The target in test [6] is T2, FGFR1 (Homo sapiens, UniProt P11362). In words: Western blot of FGFR1 signaling pathway in lung cancer cells NCI-H460. The format is cell-based. Particulars: bFGF stimulation. The arrangement: endogenous in cells; host or cells: Hela229; NCI-H460; SGC-7901; MGC-803. The procedure:
as §1

The test system of test [7] is gastric cancer cells SGC-7901. Kind of test: Transwell migration of SGC-7901 cells. The format is cell-based. The following applies: 24 h. The procedure:
as §3

The subject of test [8] is gastric cancer cells SGC-7901. Kind of test: SGC-7901 transplanted tumor model in BALB/c nude mice. It counts as in vivo. The following applies: intraperitoneal, 32 and 64 mg/kg·d. The method, then:
SGC-7901 cells were injected subcutaneously into the back of BALB/c nude mice. After 10 days, the mice were randomly divided into 4 groups, each with 12 mice, and were administered intraperitoneally. An administration group included a model group (normal saline group), an AZD4547 group (20 mg/kg·d), and a P48 group (32 mg/kg·d, 64 mg/kg·d). The length and width of the tumor were measured using a vernier caliper. The tumor volume was calculated using a formula V=0.52×L×W^2. The weights of the mice were recorded every 3 days, and the tumor size was recorded […]. After 28 days, the nude mice were sacrificed for dissection, and tissue samples were taken out for further study. The results are shown in FIG. 6, wherein A represents the weight change of the mice, B represents the volume and size of the tumor, C represents the expression of phosphorylated FLG, FRS2α and ERK1/2 in vivo after P48 treatment, and D represents the expression of Ki67 in vivo after P48 treatment.

Test [9] has as its system FGFR1. Kind of test: Flow cytometry binding of FITC-conjugated P48 to MEF-WT and FGFR1-FGFR2-FRS2a knock-out MEF cells. The format is cell-based. The following applies: FITC-conjugated P48 1, 10, 100, 1000 nM, 30 min. The procedure: as §2
The target of test [10] is T2, FGFR1. Kind of test: Flow cytometry binding of P48 to FGFR1 in SGC-7901 cells. It counts as cell-based. The arrangement: endogenous in cells; host or cells: Hela229; NCI-H460; SGC-7901; MGC-803. The procedure:
as §2, §1

Where no end group is shown, it is not given here.

T1 sequence (P16092 22-822): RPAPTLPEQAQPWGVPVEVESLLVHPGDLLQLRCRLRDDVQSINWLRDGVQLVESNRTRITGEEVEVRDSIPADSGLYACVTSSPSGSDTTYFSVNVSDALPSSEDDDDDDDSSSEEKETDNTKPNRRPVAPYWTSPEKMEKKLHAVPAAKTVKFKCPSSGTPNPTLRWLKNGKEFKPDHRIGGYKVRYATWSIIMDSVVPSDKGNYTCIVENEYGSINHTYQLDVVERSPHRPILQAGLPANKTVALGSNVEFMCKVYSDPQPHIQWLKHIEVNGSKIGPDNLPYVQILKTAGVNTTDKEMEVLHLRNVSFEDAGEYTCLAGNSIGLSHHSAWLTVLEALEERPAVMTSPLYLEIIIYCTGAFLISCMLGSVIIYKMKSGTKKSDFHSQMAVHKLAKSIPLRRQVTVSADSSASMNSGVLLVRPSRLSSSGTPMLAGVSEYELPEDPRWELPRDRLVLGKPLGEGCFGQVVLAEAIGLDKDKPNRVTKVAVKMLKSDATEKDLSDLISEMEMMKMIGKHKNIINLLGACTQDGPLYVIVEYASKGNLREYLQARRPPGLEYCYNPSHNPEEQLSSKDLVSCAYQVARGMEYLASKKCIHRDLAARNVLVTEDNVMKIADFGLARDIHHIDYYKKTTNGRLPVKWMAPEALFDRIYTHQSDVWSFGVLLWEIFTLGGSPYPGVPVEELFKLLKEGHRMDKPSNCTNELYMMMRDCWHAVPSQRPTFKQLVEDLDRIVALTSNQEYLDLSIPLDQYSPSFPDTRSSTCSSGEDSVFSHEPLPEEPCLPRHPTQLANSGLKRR
T2 sequence (P11362 22-822): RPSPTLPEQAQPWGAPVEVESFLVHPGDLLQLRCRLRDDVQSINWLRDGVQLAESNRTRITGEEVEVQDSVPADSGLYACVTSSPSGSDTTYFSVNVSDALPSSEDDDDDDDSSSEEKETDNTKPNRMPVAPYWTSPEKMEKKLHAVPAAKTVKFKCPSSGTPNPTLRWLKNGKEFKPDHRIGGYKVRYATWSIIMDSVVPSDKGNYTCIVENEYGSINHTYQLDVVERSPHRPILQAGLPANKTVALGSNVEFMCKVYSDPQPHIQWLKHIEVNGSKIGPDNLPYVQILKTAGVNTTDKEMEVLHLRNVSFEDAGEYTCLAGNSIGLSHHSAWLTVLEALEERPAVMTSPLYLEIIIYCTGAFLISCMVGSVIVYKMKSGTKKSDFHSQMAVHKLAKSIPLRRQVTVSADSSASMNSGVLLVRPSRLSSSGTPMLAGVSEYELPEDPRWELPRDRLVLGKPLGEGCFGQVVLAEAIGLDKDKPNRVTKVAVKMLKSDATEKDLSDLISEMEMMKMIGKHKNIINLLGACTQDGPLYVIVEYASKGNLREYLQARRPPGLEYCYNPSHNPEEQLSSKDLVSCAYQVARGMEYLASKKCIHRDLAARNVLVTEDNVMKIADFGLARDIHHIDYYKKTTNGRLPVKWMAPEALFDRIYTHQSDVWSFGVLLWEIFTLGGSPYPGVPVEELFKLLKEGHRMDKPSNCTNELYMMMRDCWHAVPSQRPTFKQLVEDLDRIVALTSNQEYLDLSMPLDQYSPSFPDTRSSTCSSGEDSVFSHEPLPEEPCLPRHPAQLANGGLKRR

Regarding “SPPRYPGGGS-NH2 [P48, Ser-Pro-Pro-Arg-Tyr-Pro-Gly-Gly-Gly-Ser-NH2]”, the “inhibition of FGFR1 signaling pathway” value was “can inhibit the FGFR1 signaling pathway of cervical cancer, melanoma, lung cancer and gastric cancer in a concentration-dependent manner” in test [1]; “can inhibit the FGFR1 signaling pathway of cervical cancer, melanoma, lung cancer and gastric cancer in a concentration-dependent manner” in test [6]. Besides, the “inhibition of FGFR1 activation induced by bFGF” value in test [2] and in test [3] was “can inhibit activation of FGFR1 induced by bFGF in a concentration-dependent manner” each time. For the same substance, the “inhibition of cancer cell viability” value in test [4] is given as “can significantly inhibit the viability of cancer cells”. Moreover, the cell cycle arrest entry in [5] is recorded as “can block gastric cancer cells SGC-7901 in G0/G1 phase in a concentration-dependent manner”. The “inhibition of cell migration” value in test [7] was “can inhibit cell migration in a concentration-dependent manner”. In addition, in [8] (28 days), the “inhibition of FGFR1 signaling pathways in tumors (phosphorylated FLG, FRS2a, ERK1/2)” value is recorded as “desirable inhibitory effect”. Also, in test [8] (28 days), the “inhibition of tumor growth” value was “can significantly inhibit the growth of gastric cancer cells SGC-7901”. In addition, the “inhibition of Ki67 expression (immunohistochemistry)” value in [8] (compared with control group) is recorded as “can inhibit the expression of Ki67 in a concentration-dependent manner”. The “binding to wild-type versus FGFR1-FGFR2-FRS2a knock-out MEF cells” value in test [9] is “only has a binding effect on the wild-type MEF cells”. Also, the “binding to the FGFR1 site of the cell membrane surface” value in test [10] was “desirable binding effect”.

Values taken from US20240101600A1, “FIBROBLAST GROWTH FACTOR RECEPTOR (FGFR)-TARGETING ANTAGONISTIC SHORT PEPTIDE” (WENZHOU MEDICAL UNIVERSITY, priority 2019, published 2024).
